Where two headings read alike, the source gives them in different places.
Assays:
Tetranychus urticae = Tetranychus urticae spray test, OP-resistant; assay type: in vivo; conditions: application rate 500 g/ha, bean leaf discs, all stages, after 6 days
Experimental: Tetranychus urticae—Spray Test, OP-Resistant Solvent: 78.0 parts by weight of acetone • • 1.5 parts by weight of dimethylformamide Emulsifier: alkylaryl polyglycol ether
(§1) To produce a suitable active ingredient formulation, 1 part by weight of active ingredient is dissolved with the stated parts by weight of solvent and made up with water containing an emulsifier concentration of 1000 ppm until the desired concentration is attained. To produce further test concentrations, the formulation is diluted with emulsifier-containing water.
Discs of bean leaves (Phaseolus vulgaris) infested with all stages of the greenhouse red spider mite (Tetranychus urticae) are sprayed with an active ingredient formulation of the desired concentration.
After 6 days, the efficacy in % is determined. 100% means that all the spider mites have been killed; 0% means that no spider mites have been killed.

Myzus persicae [1] = experiment: Myzus persicae oral test; assay type: in vivo; conditions: application rate 20 ppm, oral uptake through parafilm, after 5 days; for pest or weed control at 20 ppm: Myzus persicae, 120 h, read-out: efficacy
Procedure, shortened: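 Oral feeding format: mixed-stage Myzus persicae imbibe acetone/water compound formulation in sugared IPL41 medium through parafilm. Efficacy assessed as percent aphids killed at day 5.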

[2] = log P by HPLC on reversed-phase column (EEC directive 79/831 Annex V.A8); assay type: physicochemical
Procedure, shortened: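 Reversed-phase (C18) HPLC at 43° C, following EEC directive 79/831 Annex V.A8.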

Lucilia cuprina = Lucilia cuprina test; assay type: in vivo; conditions: application rate 100 ppm, L1 larvae, after 2 days
Experimental: Lucilia cuprina Test Solvent: dimethyl sulphoxide
(§2) To produce a suitable active ingredient formulation, 10 mg of active ingredient are mixed with 0.5 ml of dimethyl sulphoxide, and the concentrate is diluted with water to the desired concentration.
About 20 L1 larvae of the Australian sheep blowfly (Lucilia cuprina) are transferred into a test vessel containing minced horsemeat and the active ingredient formulation of the desired concentration.
After 2 days, the kill in % is determined. 100% means that all the larvae have been killed; 0% means that no larvae have been killed.

Musca domestica = Musca domestica test; assay type: in vivo; conditions: application rate 100 ppm, adult houseflies, after 2 days
Experimental: Musca domestica Test Solvent: dimethyl sulphoxide
as §2
Vessels containing a sponge treated with sugar solution and the active ingredient formulation of the desired concentration are populated with 10 adult houseflies (Musca domestica).
After 2 days, the kill in % is determined. 100% means that all of the flies have been killed; 0% means that none of the flies have been killed.

Myzus persicae [3] = experiment: Myzus persicae spray test (bell pepper plants); assay type: in vivo; conditions: application rate 100 ppm, after 6 days
Experimental: Myzus persicae—Spray Test Solvent: 14 parts by weight of dimethylformamide Emulsifier: alkylaryl polyglycol ether
as §1, with “water. If the addition of ammonium salts or/and penetrants is required, these are each added in a concentration of 1000 ppm to the formulation solution.” for “water.”
Bell pepper plants (Capsicum annuum) severely infested with the green peach aphid (Myzus persicae) are treated by spraying with the active ingredient formulation in the desired concentration.
After 6 days, the kill in % is determined. 100% means that all of the aphids have been killed; 0% means that none of the aphids have been killed.

Diabrotica balteata = Diabrotica balteata spray test; assay type: in vivo; conditions: application rate 160 μg/well, wheat grains with beetle larvae, after 7 days
Procedure, shortened: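 Compound in acetone/DMF with emulsifier water sprayed onto wheat seedlings germinated one day on agar, 5 grains per well. Each well then infested with 10-20 Diabrotica balteata larvae. Efficacy scored after 7 days: 100% = plant growth as uninfected control, 0% = no plants grown.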

Ctenocephalides felis [4] = experiment: Ctenocephalides felis in vitro contact test with adult cat fleas; assay type: in vivo; conditions: application rate 5 μg/cm^2, after 48 h, adult cat fleas dead or moribund
Experimental: Ctenocephalides felis—In Vitro Contact Tests with Adult Cat Fleas
For the coating of the test tubes, 9 mg of active ingredient are first dissolved in 1 ml of acetone p.a. and then diluted to the desired concentration with acetone p.a. 250 μl of the solution are distributed homogeneously on the inner walls and the base of a 25 ml test tube by turning and rocking on an orbital shaker (rocking rotation at 30 rpm for 2 h). With 900 ppm of active ingredient solution and internal surface area 44.7 cm^2, given homogeneous distribution, an area-based dose of 5 μg/cm^2 is achieved.
After the solvent has evaporated off, the tubes are populated with 5-10 adult cat fleas (Ctenocephalides felis), sealed with a perforated plastic lid and incubated in a horizontal position at room temperature and ambient humidity. After 48 h, efficacy is determined. To this end, the test tubes are stood upright and the fleas are knocked to the base of the tube. Fleas which remain motionless at the base or move in an uncoordinated manner are considered to be dead or moribund.
100% efficacy means that all the fleas were dead or moribund. 0% efficacy means that no fleas were harmed.

Boophilus microplus = Boophilus microplus injection test; assay type: in vivo; conditions: application rate 20 μg/animal, assessed after 7 days by laying of fertile eggs
Experimental: Boophilus microplus—Injection Test Solvent: dimethyl sulphoxide
To produce a suitable active ingredient formulation, 10 mg of active ingredient are mixed with 0.5 ml of solvent and the concentrate is diluted with solvent to the desired concentration.
1 μl of the active ingredient solution is injected into the abdomen of 5 engorged adult female cattle ticks (Boophilus microplus). The animals are transferred into dishes and kept in a climate-controlled room.
Efficacy is assessed after 7 days by laying of fertile eggs. Eggs which are not visibly fertile are stored in a climate-controlled cabinet until the larvae hatch after about 42 days. An efficacy of 100% means that none of the ticks has laid any fertile eggs; 0% means that all the eggs are fertile.

Myzus persicae [5] = experiment: Myzus persicae spray test (Chinese cabbage leaf discs); assay type: in vivo; conditions: application rate 500 g/ha, after 6 days
Procedure, shortened: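 Active ingredient was formulated in acetone/DMF and diluted with water containing 1000 ppm emulsifier. Chinese cabbage leaf discs infested with all aphid stages were sprayed, and % kill was scored after 6 days (100% = all aphids dead).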

Ctenocephalides felis [6] = experiment: Ctenocephalides felis oral test; assay type: in vivo; conditions: application rate 100 ppm in citrated cattle blood, after 2 days
Experimental: Ctenocephalides felis—Oral Test Solvent: dimethyl sulphoxide
For the purpose of production of a suitable active ingredient formulation, 10 mg of active ingredient are mixed with 0.5 ml of dimethyl sulphoxide. Dilution with citrated cattle blood gives the desired concentration.
About 20 unfed adult cat fleas (Ctenocephalides felis) are placed into a chamber which is closed at the top and bottom with gauze. A metal cylinder whose bottom end is closed with parafilm is placed onto the chamber. The cylinder contains the blood/active ingredient formulation, which can be imbibed by the fleas through the parafilm membrane.
After 2 days, the kill in % is determined. 100% means that all of the fleas have been killed; 0% means that none of the fleas have been killed.

[7] = HPLC on reversed-phase column (footnote a)

Row | SMILES | efficacy (Tetranychus urticae) [%] | efficacy (Myzus persicae [1]) [%] | log p [2, 7] | efficacy (kill in %) (Lucilia cuprina) [%] | efficacy (kill in %) (Musca domestica) [%] | efficacy (kill in %) (Myzus persicae [3]) [%] | efficacy (Diabrotica balteata) [%] | efficacy (Ctenocephalides felis [4]) [%] | efficacy (Boophilus microplus) [%] | pest or weed control at 20 ppm (Myzus persicae [1]) [%] | chromatographic logP [2] | chromatographic logP ([2]; pH 2.7) | efficacy (Myzus persicae [5]) [%] | chromatographic logP ([2]; reversed-phase C18 HPLC column, pH 2.7, HPLC on reversed-phase column (footnote a), read-out: log p) | chromatographic logP ([2]; reversed-phase C18 HPLC column, HPLC-MS, reversed-phase C18, 43° C., calibration with alkan-2-ones, read-out: log P) | efficacy (kill in %) (Ctenocephalides felis [6]) [%]
1 | O=C(Cn1cncn1)c1c([O-])n(Cc2cnc(Cl)s2)c2cccc[n+]12 [Example I-1-014] | 90 | 100 | 1.1 |  |  |  |  |  |  |  |  |  |  |  |  | 
2 | CCOCC(=O)c1c([O-])n(Cc2cnc(Cl)s2)c2cccc[n+]12 [Example I-1-032] |  | 100 | 1.57 | 90 | 100 | 100 | 100 | 100 |  |  |  |  |  |  |  | 
3 | CCCOCC(=O)c1c([O-])n(Cc2cnc(Cl)s2)c2cccc[n+]12 [Example I-1-033] |  | 100 | 1.92 | 90 | 100 | 100 | 100 | 90 | 80 |  |  |  |  |  |  | 
4 | O=C(CCl)c1c([O-])n(Cc2cnc(Cl)s2)c2cccc[n+]12 [Example I-1-002, 3-(Chloroacetyl)-1-[(2-chloro-1,3-thiazol-5-yl)methyl]-1H-imidazo[1,2-a]pyridin-4-ium-2-olate] | 90 |  |  |  |  | 90 |  |  |  | 100 | 1.69 | 1.69 |  |  |  | 
5 | O=C(Cn1cccn1)c1c([O-])n(Cc2cnc(Cl)s2)c2cccc[n+]12 [Example I-1-009, 1-[(2-Chloro-1,3-thiazol-5-yl)methyl]-3-(1H-pyrazol-1-ylacetyl)-1H-imidazo[1,2-a]pyridin-4-ium-2-olate] | 90 |  |  | 100 |  |  |  |  | 100 | 100 |  |  | 90 | 1.47 | 1.47 | 
6 | O=C(CCl)c1c([O-])n(Cc2cncnc2)c2cccc[n+]12 [Example I-1-019] | 90 |  | 0.77 |  |  |  |  |  |  |  |  |  |  |  |  | 
7 | O=C(COc1ccccc1)c1c([O-])n(Cc2cnc(Cl)s2)c2cccc[n+]12 [Example I-1-017] | 90 | 100 | 2.34 |  |  |  |  |  |  |  |  |  |  |  |  | 
8 | O=C(NC1CC1)c1c([O-])n(Cc2cnc(Cl)s2)c2cccc[n+]12 [Example I-1-111, 1-[(2-Chloro-1,3-thiazol-5-yl)methyl]-3-(cyclopropylcarbamoyl)-1H-imidazo[1,2-a]pyridin-4-ium-2-olate] |  |  |  | 100 | 100 |  | 100 | 100 |  | 100 | 1.63 | 1.63 | 100 |  |  | 
9 | COCC(=O)c1c([O-])n(Cc2ccc(Cl)nc2)c2cccc[n+]12 [Example I-1-003] |  | 100 | 1.18 | 100 | 80 |  |  | 100 | 80 |  |  |  | 100 |  |  | 95
10 | O=C(NCC(F)(F)F)c1c([O-])n(Cc2cnc(Cl)s2)c2cccc[n+]12 [Example I-1-137] | 90 | 100 | 2.08 | 95 |  | 95 | 100 |  |  |  |  |  |  |  |  | 

Reference: US20180282323A1, “Mesoionic imidazole derivatives as insecticides” (BAYER CROPSCIENCE AKTIENGESELLSCHAFT, priority 2015, published 2018)
